Measurements from publication PMC3445516 (PLoS ONE, 2012).

Tests used:
Experiment in all cases: Ambit kinase profiling, competition binding
ITK = target: T1, ITK (Homo sapiens, UniProt Q08881); settings: compound concentration 10 uM
T1 construct: purchased Ambit Biosciences (KINOMEscan)
Excerpt: (§1) Supplement pone.0044653.s004.xls, sheet "Compound 122" | column: Percent Competition

PKMYT1 = target: T2, PKMYT1 (Homo sapiens, UniProt Q99640); settings: compound concentration 10 uM
T2 construct: purchased Ambit Biosciences (KINOMEscan)
Excerpt: as §1

DAPK2 = target: T3, DAPK2 (Homo sapiens, UniProt Q9UIK4); settings: compound concentration 10 uM, read-out: Percent Competition
T3 construct: purchased Ambit Biosciences (KINOMEscan)
Excerpt: as §1

ERBB2 = target: T4, ERBB2 (Homo sapiens, UniProt P04626); settings: compound concentration 10 uM, read-out: Percent Competition
T4 construct: purchased Ambit Biosciences (KINOMEscan)
Excerpt: as §1

PRKR = target: T5, PRKR (Homo sapiens, UniProt P19525); settings: compound concentration 10 uM
T5 construct: purchased Ambit Biosciences (KINOMEscan)
Excerpt: as §1

IKK-epsilon = target: T6, IKK-epsilon (Homo sapiens, UniProt Q14164); settings: compound concentration 10 uM, read-out: Percent Competition
T6 construct: purchased Ambit Biosciences (KINOMEscan)
Excerpt: as §1

NEK6 = target: T7, NEK6 (Homo sapiens, UniProt Q9HC98); settings: compound concentration 10 uM, read-out: Percent Competition
T7 construct: purchased Ambit Biosciences (KINOMEscan)
Excerpt: as §1

FGR = target: T8, FGR (Homo sapiens, UniProt P09769); settings: compound concentration 10 uM, read-out: Percent Competition
T8 construct: purchased Ambit Biosciences (KINOMEscan)
Excerpt: as §1

AKT1 = target: T9, AKT1 (Homo sapiens, UniProt P31749); settings: compound concentration 10 uM, read-out: Percent Competition
T9 construct: purchased Ambit Biosciences (KINOMEscan)
Excerpt: as §1

PAK6 = target: T10, PAK6 (Homo sapiens, UniProt Q9NQU5); settings: compound concentration 10 uM, read-out: Percent Competition
T10 construct: purchased Ambit Biosciences (KINOMEscan)
Excerpt: as §1

ABL1(F317L) = target: T11, ABL1(F317L) (Homo sapiens, UniProt P00519, F317L); settings: compound concentration 10 uM, read-out: Percent Competition
T11 construct: purchased Ambit Biosciences (KINOMEscan)
Excerpt: as §1

[1] = target: T12, JAK1(JH1domain-catalytic) (Homo sapiens, UniProt P23458); settings: compound concentration 10 uM
T12 construct: JAK1(JH1domain-catalytic); purchased Ambit Biosciences (KINOMEscan)
Excerpt: as §1

SgK085 = target: T13, SgK085 (Homo sapiens, UniProt Q86YV6); settings: compound concentration 10 uM, read-out: Percent Competition
T13 construct: purchased Ambit Biosciences (KINOMEscan)
Excerpt: as §1

PRKG1 = target: T14, PRKG1 (Homo sapiens, UniProt Q13976); settings: compound concentration 10 uM, read-out: Percent Competition
T14 construct: purchased Ambit Biosciences (KINOMEscan)
Excerpt: as §1

MYO3B = target: T15, MYO3B (Homo sapiens, UniProt Q8WXR4); settings: compound concentration 10 uM, read-out: Percent Competition
T15 construct: purchased Ambit Biosciences (KINOMEscan)
Excerpt: as §1

FGFR3 = target: T16, FGFR3 (Homo sapiens, UniProt P22607); settings: compound concentration 10 uM, read-out: Percent Competition
T16 construct: purchased Ambit Biosciences (KINOMEscan)
Excerpt: as §1

PAK3 = target: T17, PAK3 (Homo sapiens, UniProt O75914); settings: compound concentration 10 uM, read-out: Percent Competition
T17 construct: purchased Ambit Biosciences (KINOMEscan)
Excerpt: as §1

FLT3(K663Q) = target: T18, FLT3(K663Q) (Homo sapiens, UniProt P36888, K663Q); settings: compound concentration 10 uM, read-out: Percent Competition
T18 construct: purchased Ambit Biosciences (KINOMEscan)
Excerpt: as §1

LYN = target: T19, LYN (Homo sapiens, UniProt P07948); settings: compound concentration 10 uM, read-out: Percent Competition
T19 construct: purchased Ambit Biosciences (KINOMEscan)
Excerpt: as §1

BRSK1 = target: T20, BRSK1 (Homo sapiens, UniProt Q8TDC3); settings: compound concentration 10 uM, read-out: Percent Competition
T20 construct: purchased Ambit Biosciences (KINOMEscan)
Excerpt: as §1

MAP4K5 = target: T21, MAP4K5 (Homo sapiens, UniProt Q9Y4K4); settings: compound concentration 10 uM, read-out: Percent Competition
T21 construct: purchased Ambit Biosciences (KINOMEscan)
Excerpt: as §1

TXK = target: T22, TXK (Homo sapiens, UniProt P42681); settings: compound concentration 10 uM, read-out: Percent Competition
T22 construct: purchased Ambit Biosciences (KINOMEscan)
Excerpt: as §1

PLK3 = target: T23, PLK3 (Homo sapiens, UniProt Q9H4B4); settings: compound concentration 10 uM, read-out: Percent Competition
T23 construct: purchased Ambit Biosciences (KINOMEscan)
Excerpt: as §1

AURKB = target: T24, AURKB (Homo sapiens, UniProt Q96GD4); settings: compound concentration 10 uM, read-out: Percent Competition
T24 construct: purchased Ambit Biosciences (KINOMEscan)
Excerpt: as §1

TLK1 = target: T25, TLK1 (Homo sapiens, UniProt Q9UKI8); settings: compound concentration 10 uM, read-out: Percent Competition
T25 construct: purchased Ambit Biosciences (KINOMEscan)
Excerpt: as §1

PDPK1 = target: T26, PDPK1 (Homo sapiens, UniProt O15530); settings: compound concentration 10 uM, read-out: Percent Competition
T26 construct: purchased Ambit Biosciences (KINOMEscan)
Excerpt: as §1

FES = target: T27, FES (Homo sapiens, UniProt P07332); settings: compound concentration 10 uM, read-out: Percent Competition
T27 construct: purchased Ambit Biosciences (KINOMEscan)
Excerpt: as §1

MYLK = target: T28, MYLK (Homo sapiens, UniProt Q15746); settings: compound concentration 10 uM, read-out: Percent Competition
T28 construct: purchased Ambit Biosciences (KINOMEscan)
Excerpt: as §1

T27 sequence (P07332 whole entry): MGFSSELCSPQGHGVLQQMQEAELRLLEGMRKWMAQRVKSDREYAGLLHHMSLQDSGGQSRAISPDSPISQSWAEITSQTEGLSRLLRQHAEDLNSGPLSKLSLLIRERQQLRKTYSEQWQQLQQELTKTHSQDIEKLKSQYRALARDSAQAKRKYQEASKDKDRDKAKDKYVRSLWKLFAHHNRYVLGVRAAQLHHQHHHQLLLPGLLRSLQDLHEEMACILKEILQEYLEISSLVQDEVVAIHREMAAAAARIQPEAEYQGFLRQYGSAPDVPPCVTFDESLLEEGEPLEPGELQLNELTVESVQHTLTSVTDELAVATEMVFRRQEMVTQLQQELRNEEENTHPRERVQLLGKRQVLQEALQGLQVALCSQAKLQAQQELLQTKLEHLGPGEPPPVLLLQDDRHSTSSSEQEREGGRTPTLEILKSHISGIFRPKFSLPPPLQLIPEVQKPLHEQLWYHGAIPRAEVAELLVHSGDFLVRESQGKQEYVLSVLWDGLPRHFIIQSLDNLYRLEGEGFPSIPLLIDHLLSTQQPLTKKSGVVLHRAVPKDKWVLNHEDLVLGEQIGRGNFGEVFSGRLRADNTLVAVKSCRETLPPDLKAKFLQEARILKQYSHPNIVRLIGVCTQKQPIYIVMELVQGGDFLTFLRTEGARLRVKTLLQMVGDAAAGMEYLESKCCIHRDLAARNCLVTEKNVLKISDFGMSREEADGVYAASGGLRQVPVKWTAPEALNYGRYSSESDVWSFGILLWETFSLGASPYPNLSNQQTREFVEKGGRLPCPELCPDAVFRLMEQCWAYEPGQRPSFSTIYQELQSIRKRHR
T3 sequence (Q9UIK4 whole entry): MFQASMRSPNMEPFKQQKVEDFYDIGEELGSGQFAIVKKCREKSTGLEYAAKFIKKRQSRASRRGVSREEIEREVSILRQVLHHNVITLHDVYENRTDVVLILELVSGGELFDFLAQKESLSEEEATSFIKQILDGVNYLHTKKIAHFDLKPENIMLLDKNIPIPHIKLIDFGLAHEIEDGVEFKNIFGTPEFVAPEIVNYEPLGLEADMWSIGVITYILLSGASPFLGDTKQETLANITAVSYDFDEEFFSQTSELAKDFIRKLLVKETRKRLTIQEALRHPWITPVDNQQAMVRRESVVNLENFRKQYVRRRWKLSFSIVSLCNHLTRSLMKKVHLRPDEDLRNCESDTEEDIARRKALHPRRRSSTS
T20 sequence (Q8TDC3 whole entry): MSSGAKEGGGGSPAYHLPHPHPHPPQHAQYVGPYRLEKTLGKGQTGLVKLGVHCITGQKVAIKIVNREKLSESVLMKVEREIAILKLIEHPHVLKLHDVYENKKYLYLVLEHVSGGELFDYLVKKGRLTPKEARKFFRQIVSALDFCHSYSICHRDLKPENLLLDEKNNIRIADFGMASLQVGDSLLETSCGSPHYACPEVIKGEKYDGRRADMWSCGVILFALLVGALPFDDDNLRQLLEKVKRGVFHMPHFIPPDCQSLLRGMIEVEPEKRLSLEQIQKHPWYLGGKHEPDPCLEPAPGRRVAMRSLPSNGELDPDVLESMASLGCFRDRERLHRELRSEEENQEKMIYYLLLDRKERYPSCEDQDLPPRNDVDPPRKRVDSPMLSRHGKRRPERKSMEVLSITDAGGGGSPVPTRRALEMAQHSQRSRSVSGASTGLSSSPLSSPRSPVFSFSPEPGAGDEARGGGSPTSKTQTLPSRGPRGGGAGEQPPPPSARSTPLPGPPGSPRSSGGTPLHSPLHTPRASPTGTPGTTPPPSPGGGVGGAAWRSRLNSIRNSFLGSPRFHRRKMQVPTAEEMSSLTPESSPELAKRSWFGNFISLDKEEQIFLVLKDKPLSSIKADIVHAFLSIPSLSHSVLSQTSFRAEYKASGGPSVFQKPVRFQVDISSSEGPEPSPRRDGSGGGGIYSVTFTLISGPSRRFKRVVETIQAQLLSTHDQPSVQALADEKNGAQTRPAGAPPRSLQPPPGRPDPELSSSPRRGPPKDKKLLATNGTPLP
T4 sequence (P04626 23-1255): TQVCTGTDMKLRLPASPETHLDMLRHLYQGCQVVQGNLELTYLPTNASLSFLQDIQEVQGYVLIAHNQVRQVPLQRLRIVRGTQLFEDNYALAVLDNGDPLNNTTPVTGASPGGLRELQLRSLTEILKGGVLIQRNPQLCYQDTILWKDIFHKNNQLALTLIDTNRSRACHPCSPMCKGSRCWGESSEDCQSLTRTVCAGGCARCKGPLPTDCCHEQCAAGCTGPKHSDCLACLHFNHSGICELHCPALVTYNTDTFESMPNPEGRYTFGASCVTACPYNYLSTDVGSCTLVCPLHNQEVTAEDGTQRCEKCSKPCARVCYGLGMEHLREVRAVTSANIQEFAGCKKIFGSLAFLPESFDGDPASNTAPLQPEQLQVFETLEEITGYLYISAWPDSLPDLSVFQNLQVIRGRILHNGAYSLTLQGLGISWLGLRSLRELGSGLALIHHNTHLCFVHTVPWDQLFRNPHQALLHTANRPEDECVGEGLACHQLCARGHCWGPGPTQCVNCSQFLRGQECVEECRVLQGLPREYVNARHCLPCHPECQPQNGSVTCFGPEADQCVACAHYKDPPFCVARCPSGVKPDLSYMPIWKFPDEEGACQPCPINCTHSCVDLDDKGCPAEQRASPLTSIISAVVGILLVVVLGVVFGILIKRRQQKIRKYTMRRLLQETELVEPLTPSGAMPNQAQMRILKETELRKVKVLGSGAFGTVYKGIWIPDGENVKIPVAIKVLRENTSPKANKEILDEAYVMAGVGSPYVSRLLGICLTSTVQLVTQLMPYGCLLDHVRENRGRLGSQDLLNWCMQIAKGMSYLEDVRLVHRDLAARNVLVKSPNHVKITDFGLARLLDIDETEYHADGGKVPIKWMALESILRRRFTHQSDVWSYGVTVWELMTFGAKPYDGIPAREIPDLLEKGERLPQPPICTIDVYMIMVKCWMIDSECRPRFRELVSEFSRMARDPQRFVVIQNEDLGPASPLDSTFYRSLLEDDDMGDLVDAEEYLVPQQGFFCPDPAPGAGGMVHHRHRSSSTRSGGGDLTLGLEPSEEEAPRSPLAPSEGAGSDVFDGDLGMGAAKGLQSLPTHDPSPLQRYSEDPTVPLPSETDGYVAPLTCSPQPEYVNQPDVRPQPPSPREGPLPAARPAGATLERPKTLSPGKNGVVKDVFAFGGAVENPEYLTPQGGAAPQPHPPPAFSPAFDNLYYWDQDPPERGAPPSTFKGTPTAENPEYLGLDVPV
T9 sequence (P31749 whole entry): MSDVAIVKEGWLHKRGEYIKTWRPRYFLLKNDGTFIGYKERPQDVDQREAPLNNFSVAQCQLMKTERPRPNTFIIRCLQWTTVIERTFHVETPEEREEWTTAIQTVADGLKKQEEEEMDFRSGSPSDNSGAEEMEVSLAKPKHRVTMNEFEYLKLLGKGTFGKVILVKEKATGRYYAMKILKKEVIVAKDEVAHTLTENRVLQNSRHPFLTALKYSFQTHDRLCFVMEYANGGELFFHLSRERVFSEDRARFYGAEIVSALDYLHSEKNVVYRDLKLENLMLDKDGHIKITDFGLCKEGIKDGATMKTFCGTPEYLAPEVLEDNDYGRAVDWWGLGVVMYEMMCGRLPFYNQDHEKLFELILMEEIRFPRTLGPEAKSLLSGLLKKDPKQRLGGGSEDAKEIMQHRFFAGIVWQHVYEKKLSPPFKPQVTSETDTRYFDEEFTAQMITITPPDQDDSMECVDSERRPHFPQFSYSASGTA
T22 sequence (P42681 whole entry): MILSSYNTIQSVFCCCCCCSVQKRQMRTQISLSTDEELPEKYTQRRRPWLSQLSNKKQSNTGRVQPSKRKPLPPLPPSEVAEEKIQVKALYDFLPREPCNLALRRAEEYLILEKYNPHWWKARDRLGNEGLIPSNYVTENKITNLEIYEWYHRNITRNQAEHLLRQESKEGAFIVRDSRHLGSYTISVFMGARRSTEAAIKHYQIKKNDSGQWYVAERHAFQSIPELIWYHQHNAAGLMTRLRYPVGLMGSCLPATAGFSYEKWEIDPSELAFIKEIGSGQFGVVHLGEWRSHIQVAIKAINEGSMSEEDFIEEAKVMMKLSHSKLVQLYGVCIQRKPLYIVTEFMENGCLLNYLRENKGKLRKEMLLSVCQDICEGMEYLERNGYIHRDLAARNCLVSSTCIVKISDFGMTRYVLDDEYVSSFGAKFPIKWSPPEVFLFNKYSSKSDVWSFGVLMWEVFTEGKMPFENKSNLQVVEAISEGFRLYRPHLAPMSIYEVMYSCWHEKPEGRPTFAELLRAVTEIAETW
T23 sequence (Q9H4B4 whole entry): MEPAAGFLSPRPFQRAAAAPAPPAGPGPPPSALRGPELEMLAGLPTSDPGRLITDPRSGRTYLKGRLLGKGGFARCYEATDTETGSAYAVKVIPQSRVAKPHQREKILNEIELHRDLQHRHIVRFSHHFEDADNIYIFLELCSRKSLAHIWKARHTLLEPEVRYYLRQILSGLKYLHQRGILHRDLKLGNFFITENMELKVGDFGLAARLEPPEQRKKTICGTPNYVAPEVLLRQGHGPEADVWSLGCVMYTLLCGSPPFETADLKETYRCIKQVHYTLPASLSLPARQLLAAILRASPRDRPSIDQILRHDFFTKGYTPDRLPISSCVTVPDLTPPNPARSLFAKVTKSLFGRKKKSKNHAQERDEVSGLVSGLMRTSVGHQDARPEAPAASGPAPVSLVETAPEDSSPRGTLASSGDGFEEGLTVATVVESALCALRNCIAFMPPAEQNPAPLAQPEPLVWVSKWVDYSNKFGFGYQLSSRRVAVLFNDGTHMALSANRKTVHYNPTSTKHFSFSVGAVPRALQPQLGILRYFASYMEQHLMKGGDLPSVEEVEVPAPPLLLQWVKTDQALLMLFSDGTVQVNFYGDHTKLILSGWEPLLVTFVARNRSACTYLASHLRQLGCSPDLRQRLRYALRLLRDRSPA

Fc1ccc(-c2c(-c3ccncc3)[nH]c3nccnc23)cc1 [RO1155697-000-005] was tested, and the “Percent Competition” value (ITK) was <50%, the “Percent Competition” value (PKMYT1) was <50% and the inhibition at 10 µM (DAPK2) was < 50%. The inhibition at 10 µM (ERBB2) was < 50%, the “Percent Competition” value (PRKR) was <50% and the inhibition at 10 µM (IKK-epsilon) was < 50%. For the same molecule, the inhibition at 10 µM (NEK6) was < 50%, the inhibition at 10 µM (FGR) was < 50% and the inhibition at 10 µM (AKT1) was < 50%. The inhibition at 10 µM (PAK6) was < 50%, the inhibition at 10 µM (ABL1(F317L)) was < 50% and the “Percent Competition” value [1] was <50%. For the same molecule, the inhibition at 10 µM (SgK085) was < 50%, the inhibition at 10 µM (PRKG1) was < 50% and the inhibition at 10 µM (MYO3B) was < 50%. The inhibition at 10 µM (FGFR3) was < 50%, the inhibition at 10 µM (PAK3) was < 50% and the inhibition at 10 µM (FLT3(K663Q)) was < 50%. The inhibition at 10 µM (LYN) was < 50%, the inhibition at 10 µM (BRSK1) was < 50% and the inhibition at 10 µM (MAP4K5) was < 50%. The inhibition at 10 µM (TXK) was < 50%, the inhibition at 10 µM (PLK3) was < 50% and the inhibition at 10 µM (AURKB) was < 50%. The inhibition at 10 µM (TLK1) was < 50%, the inhibition at 10 µM (PDPK1) was < 50% and the inhibition at 10 µM (FES) was < 50%. The inhibition at 10 µM (MYLK) was < 50%.
